This is an account of results in patent publication US9580463B2 (BRISTOL-MYERS SQUIBB COMPANY, priority 2013, dated 2017).

Each structure is given as a SMILES string. Read-outs that look alike come from different tables or passages of the source.

The conditions of this series: rcm bond, 15-membered ring, Hoveyda-Grubbs II, DCE, 80.0 °C.

Turning to `COC[C@@H]1CC(C)CC/C=C\[C@@H]2C[C@@]2(C(=O)NS(=O)(=O)C2(CF)CC2)NC(=O)[C@@H]2C[C@@H](O)CN2C(=O)[C@H]1NC(=O)OC(C)(C)C` (stereo partly drawn), under “from tert-butyl (2S,3R)-1-(((2S,4R)-2-(((1R,2S)-1-(((1-(fluoromethyl)cyclopropyl)sulfonyl)carbamoyl)-2-vinylcyclopropyl)carbamoyl)-4-hydroxypyrrolidin-1-yl)-3-(methoxymethyl)-5-methyl-1-oxonon-8-en-2-yl)carbamate, 5.0 mM”, the ring closure, isolated yield was 45%.
In turn, `COC[C@@H]1CCCC/C=C\[C@@H]2C[C@@]2(C(=O)NS(=O)(=O)C2(C)CC2)NC(=O)[C@@H]2C[C@@H](O)CN2C(=O)[C@H]1NC(=O)OC(C)(C)C` came in with a ring closure, isolated yield (from C=CCCCC[C@@H](COC)[C@H](NC(=O)OC(C)(C)C)C(=O)N1C[C@H](O)C[C@H]1C(=O)N[C@]1(C(=O)NS(=O)(=O)C2(C)CC2)C[C@H]1C=C, 24.4 mM, 2.0 h) of 55%.
Take `COC[C@@H]1CCCC/C=C\[C@@H]2C[C@@]2(C(=O)NS(=O)(=O)C2CC2)NC(=O)[C@@H]2C[C@@H](O)CN2C(=O)[C@H]1NC(=O)OC(C)(C)C`: the ring closure, isolated yield (from C=CCCCC[C@@H](COC)[C@H](NC(=O)OC(C)(C)C)C(=O)N1C[C@H](O)C[C@H]1C(=O)N[C@]1(C(=O)NS(=O)(=O)C2CC2)C[C@H]1C=C, 10.8 mM, 2.0 h) worked out at 52%.
